Assay results: patent US11261193B2, “Morphic forms of G1T38 and methods of manufacture thereof” (G1 Therapeutics, Inc., priority 2017, dated 2022)
Values after ≈ are worked out from the molar mass of the structure shown. “Also recorded” adds a separate entry of the source. Like-named read-outs stand apart in the source and are kept apart here.

Tests used:
[1] = Stability study under thermal stress (oven at 60° C. for 7 days); assay type: physicochemical; conditions: for XRPD pattern / stability after thermal stress: 60° C. for 7 days
Protocol: Forms A, B, and D were stored in an oven maintained at 60° C. for 7 days.

[2] = Dynamic vapor sorption (moisture sorption) experiment; assay type: physicochemical; conditions: for XRPD (post DVS): form by XRPD after moisture sorption, sample dried at 60° C. and 0% RH; for % wt change at 60% RH: moisture adsorbed at 60% RH; for % wt change at 90% RH: moisture adsorbed at 90% RH
[3] = Twelve-month stability study at 25° C./60% RH; assay type: physicochemical; conditions: for Appearance / HPLC Purity / Moisture (%) / XRPD: 25° C./60% RH
Protocol: (§1) Form B was stored at 25° C./60% RH for twelve months and at 40° C./75% RH for six months.

[4] = TG-IR experiment monitoring potential release of hydrogen chloride; assay type: physicochemical; conditions: heated at 20° C./minute to approximately 140° C.; listed as pure Form B
Protocol: Thermogravimetric infrared (TG-IR) analysis was performed on a TA Instruments Q5000 IR thermogravimetric (TG) analyzer interfaced to a Magna-IR 560® Fourier transform infrared (FT-IR) spectrophotometer (Thermo Nicolet) equipped with an Ever-Glo mid/far IR source, a potassium bromide (KBr) beamsplitter, and a mercury cadmium telluride (MCT-A) detector. The FT-IR wavelength verification was performed using polystyrene, and the TG calibration standards were nickel and Alumel™. The sample was placed in a platinum sample pan and the pan was inserted into the TG furnace. The TG instrument was started first, immediately followed by the FT-IR instrument. The TG instrument was operated under a flow of helium at 90 and 10 cc/minute for the purge and balance, respectively. The furnace was heated under helium at a rate of 20° C./minute to a final temperature of approximately 140° C. IR spectra were collected approximately every 32 seconds for approximately 7.5 minutes. Each IR spectrum represents 32 co-added scans collected at a spectral resolution of 4 cm-1. Volatiles were identified from a search of the High Resolution Nicolet Vapor Phase spectral library. […]

[5] = Six-month stability study at 40° C./75% RH; assay type: physicochemical
Protocol: as §1

[6] = Phase 1a toxicity trial in 75 women; assay type: in vivo, human
[7] = system: CDK4/6-dependent tumorigenic cell lines including breast, melanoma, leukemia, and lymphoma cells; conditions: variety of CDK4/6-dependent tumorigenic cell lines; cited from earlier work
RB phosphorylation = conditions: in vitro and in vivo; cited from earlier work
[8] = Solubility estimate by aliquot addition with visual observation; assay type: physicochemical; conditions: thermodynamic from solid
Protocol: Solubility estimates of impure Form B were attempted in various predominantly HCl acidic aqueous acetone solvent mixtures using an aliquot addition method that involved visual observation. Aliquots of various solvents or diluent/organic solvent mixtures were added to measured amounts of impure Form B with agitation (typically sonication) at ambient temperature until complete dissolution was achieved, as judged by visual observation. Solubilities were calculated based on the total solvent used to give a solution; actual solubilities may be greater because of the volume of solvent portions utilized or a slow rate of dissolution. […] If dissolution occurred at the first aliquot, the value was reported as “>”. Due to the haziness of the obtained samples, effective solubility estimates were difficult to discern.

CC(C)N1CCN(c2ccc(Nc3ncc4cc5n(c4n3)C3(CCCCC3)CNC5=O)nc2)CC1 [Form A]
XRPD pattern / stability after thermal stress [1]: A new pattern; also recorded: converted to a new Form | XRPD after equilibrium at room temperature ([1]; three further days at room temperature after 60° C. for 7 days): converted back to Form A; also recorded: changed back to Form A | stability in the moisture sorption experiment [2]: unstable; also recorded: not stable | XRPD (post DVS) [2]: Form K | % wt change at 60% RH [2]: 14.9 wt % | % wt change at 90% RH [2]: 15.8 wt %

CC(C)N1CCN(c2ccc(Nc3ncc4cc5n(c4n3)C3(CCCCC3)CNC5=O)nc2)CC1 [Form B]
time stable in long-term stability study ([3]; 25° C. and 60% relative humidity): at least 1 year | Appearance ([3]; 0 M): Yellow | HPLC Purity ([3]; 0 M): 99.5% | Moisture (%) ([3]; 0 M): 4.9% | XRPD ([3]; 0 M): Form B | Appearance ([3]; 3 M): Yellow solid | HPLC Purity ([3]; 3 M): 99.5% | Moisture (%) ([3]; 3 M): 4.07% | Appearance ([3]; 6 M): Yellow | HPLC Purity ([3]; 6 M): 99.5% | Moisture (%) ([3]; 6 M): 7.53% | Appearance ([3]; 9 M): Yellow solid | HPLC Purity ([3]; 9 M): 99.6% | Moisture (%) ([3]; 9 M): 7.29% | Appearance ([3]; 12 M): Yellow | HPLC Purity ([3]; 12 M): 99.5% | Moisture (%) ([3]; 12 M): 7.48% | XRPD ([3]; 12 M): conformed to the reference spectrum; also recorded: Form B | volatiles released during TG-IR [4]: only water, and no hydrogen chloride, was released | XRPD pattern / stability after thermal stress [1]: stable; also recorded: No change; also recorded: remained unchanged | stability in the moisture sorption experiment [2]: stable | XRPD (post DVS) [2]: remained in Form B; also recorded: remained unchanged as Form B | % wt change at 60% RH [2]: 5.8 wt % | % wt change at 90% RH [2]: 5.9 wt % | Appearance ([5]; 0 M): Yellow solid | HPLC Purity ([5]; 0 M): 99.5% | Moisture (%) ([5]; 0 M): 4.9% | XRPD ([5]; 0 M): Form B | Appearance ([5]; 1 M): Yellow solid | HPLC Purity ([5]; 1 M): 99.5% | Moisture (%) ([5]; 1 M): 2.75% | Appearance ([5]; 3 M): Yellow solid | HPLC Purity ([5]; 3 M): 99.5% | Moisture (%) ([5]; 3 M): 7.47% | XRPD ([5]; 3 M): Form B | Appearance ([5]; 6 M): Yellow solid | HPLC Purity ([5]; 6 M): 99.5% | Moisture (%) ([5]; 6 M): 7.53% | XRPD ([5]; 6 M): conformed to the reference spectrum; also recorded: Form B

CC(C)N1CCN(c2ccc(Nc3ncc4cc5n(c4n3)C3(CCCCC3)CNC5=O)nc2)CC1 [Form C]
XRPD pattern / stability after thermal stress [1]: remained unchanged

CC(C)N1CCN(c2ccc(Nc3ncc4cc5n(c4n3)C3(CCCCC3)CNC5=O)nc2)CC1 [Form D]
XRPD pattern / stability after thermal stress [1]: No change | stability in the moisture sorption experiment [2]: unstable; also recorded: not stable | XRPD (post DVS) [2]: Form K | % wt change at 60% RH [2]: 4.4 wt %

CC(C)N1CCN(c2ccc(Nc3ncc4cc5n(c4n3)C3(CCCCC3)CNC5=O)nc2)CC1 [Form G1T38, 2′-((5-(4-isopropylpiperazin-1-yl)pyridin-2-yl)amino)-7′,8′-dihydro-6′H-spiro[cyclohexane-1,9′-pyrazino[1′,2′:1,5]pyrrolo[2,3-d]pyrimidin]-6′-one]
tolerability [6]: well tolerated with no significant adverse events | inhibition of cell proliferation [7]: induces inhibition of cell proliferation | inhibition of RB phosphorylation (RB phosphorylation): inhibits RB phosphorylation

CC(C)N1CCN(c2ccc(Nc3ncc4cc5n(c4n3)C3(CCCCC3)CNC5=O)nc2)CC1 [Impure Form B]
solubility ([8]; aqueous buffer, 2.0M HCl, ambient, read-out: Solubility): 4000 µg/mL (≈ 8.43 mM) | solubility ([8]; aqueous buffer, 5.0M HCl, ambient, read-out: Solubility): 3000 µg/mL (≈ 6.32 mM) | solubility ([8]; aqueous buffer, 5.0M HCl:water 1:2, ambient, read-out: Solubility): 7000 µg/mL (≈ 14.7 mM) | solubility ([8]; aqueous with cosolvent or surfactant or cyclodextrin, 1M HCl:acetone 50:50, ambient, read-out: Solubility): 4000 µg/mL (≈ 8.43 mM) | solubility ([8]; aqueous with cosolvent or surfactant or cyclodextrin, 1M HCl:acetone 60:40, ambient, read-out: Solubility): 4000 µg/mL (≈ 8.43 mM) | solubility ([8]; aqueous with cosolvent or surfactant or cyclodextrin, 1M HCl:acetone 67:33, ambient, read-out: Solubility): 6000 µg/mL (≈ 12.6 mM) | solubility ([8]; aqueous with cosolvent or surfactant or cyclodextrin, 1.0M HCl:acetone 75:25, ambient, read-out: Solubility): 7000 µg/mL (≈ 14.7 mM) | solubility ([8]; aqueous with cosolvent or surfactant or cyclodextrin, predominantly HCl acidic aqueous acetone solvent mixtures, ambient temperature, read-out: solubility in the tested solvent mixtures): 3000 to 7000 µg/mL (≈ 6.32 to 14.7 mM) | solubility ([8]; organic solvent or mixture, 0.1M HCl:acetone 20:80, ambient, read-out: Solubility): < 1000 µg/mL | solubility ([8]; organic solvent or mixture, 0.5M HCl:acetone 10:90, ambient, read-out: Solubility): < 1000 µg/mL | solubility ([8]; organic solvent or mixture, 0.5M HCl:acetone 20:80, ambient, read-out: Solubility): < 1000 µg/mL | solubility ([8]; organic solvent or mixture, 1M HCl:acetone 5:95, ambient, read-out: Solubility): < 1000 µg/mL | solubility ([8]; organic solvent or mixture, 1M HCl:acetone 10:90, ambient, read-out: Solubility): < 1000 µg/mL | solubility ([8]; organic solvent or mixture, 1M HCl:acetone 20:80, ambient, read-out: Solubility): < 1000 µg/mL | solubility ([8]; organic solvent or mixture, 1M HCl:acetone 33:67, ambient, read-out: Solubility): 2000 µg/mL (≈ 4.21 mM) | solubility ([8]; organic solvent or mixture, Water:acetone 1:2, ambient, read-out: Solubility): 3000 µg/mL (≈ 6.32 mM) | solubility ([8]; Water, ambient, read-out: Solubility): < 7000 µg/mL | solubility ([8]; water:acetone 3:1, aqueous with cosolvent or surfactant or cyclodextrin, Water:cetone 3:1, ambient, read-out: Solubility): < 3000 µg/mL
